The target of this experiment is CB2 receptor (hCB2) (Homo sapiens, UniProt P34972). Briefly: competitive radioligand binding, [3H]CP-55, […] displacement.

pKi: −log10 of the molar value.

CB2 receptor (hCB2), sequence (P34972 whole entry): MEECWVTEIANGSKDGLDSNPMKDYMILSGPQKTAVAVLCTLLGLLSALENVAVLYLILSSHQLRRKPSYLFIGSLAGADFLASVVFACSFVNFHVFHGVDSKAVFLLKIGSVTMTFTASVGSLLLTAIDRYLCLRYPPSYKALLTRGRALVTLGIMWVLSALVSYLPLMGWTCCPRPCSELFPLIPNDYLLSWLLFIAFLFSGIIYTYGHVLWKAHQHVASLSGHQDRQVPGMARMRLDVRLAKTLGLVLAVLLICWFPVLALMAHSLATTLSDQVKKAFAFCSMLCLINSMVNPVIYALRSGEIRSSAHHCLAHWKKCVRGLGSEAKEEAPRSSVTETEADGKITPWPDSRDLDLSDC

By pKi is commonly meant −log10 of the Ki, conventionally taken in molar units. Low readings indicate a large Ki, high ones a small Ki. `C=C(C)[C@@H]1CC[C@]2(C(=O)O)CC[C@]3(C)[C@H](CC[C@@H]4[C@@]5(C)CC[C@H](O)C(C)(C)[C@@H]5CC[C@]43C)[C@@H]12` [BA, Betulinic acid] had a pKi of 4.39.

Values taken from article PMC4924623 (Molecular cancer therapeutics, 2012).
